Literature values as cited in patent US20260263442A1, “METHOD FOR TREATING L-DOPA-INDUCED DYSKINESIA USING BEFIRADOL” (Neurolixis, Inc., priority 2023, published 2026).

Columns and labels:
[1] = system: striatal 5-HT1A receptors; conditions: striatum of rat, cat, macaque and human; cited from earlier work
[2] = system: L-DOPA-induced dyskinesia in Parkinson's patients; conditions: human, in vivo; cited from earlier work
[3] = system: L-DOPA-induced dyskinesia in Parkinson's patients; conditions: cited from earlier work; for Efficacy to alleviate LID, clinically tested / Effect on motor symptoms of Parkinson's disease: human, in vivo

Row | Compound | Efficacy to alleviate LID, clinically tested [3] | Effect on motor symptoms of Parkinson's disease [3] | other results
1 | Cc1ccc(CNCC2(F)CCN(C(=O)c3ccc([18F])c(Cl)c3)CC2)nc1 [^18F-NLX-112] | – | – | Labelling of 5-HT1A receptors, PET brain imaging [1]: consistently labelled striatal 5-HT1A receptors
2 | NC12CC3CC(CC(C3)C1)C2 [amantadine] | – | – | Proportion of patients who are non-responders [2]: about ⅓; Side effects limiting use [2]: hallucinations, confusion, leg edema, orthostatic hypotension
3 | O=C1CC2(CCCC2)CC(=O)N1CCCCN1CCN(c2ncccn2)CC1 [buspirone] | limited efficacy | – | –
4 | c1cc2c(c(N3CCNCC3)c1)OCCO2 [eltoprazine] | limited efficacy | – | –
5 | Fc1ccc(-c2cncc(CNC[C@H]3CCc4ccccc4O3)c2)cc1 [sarizotan] | limited efficacy | no beneficial effect or even the opposite effect | Effect on L-DOPA efficacy, phase 2b study ([3]; Parkinson's patients with troublesome L-DOPA-induced dyskinesia): two of the three tested doses significantly reduced L-DOPA efficacy; Reduction of LID, two phase 3 clinical trials ([3]; third (and lowest) dose): ineffective in reducing LID
6 | O=C1[C@@H]2[C@H]3CC[C@H](C3)[C@@H]2C(=O)N1CCCCN1CCN(c2ncccn2)CC1 [tandospirone] | limited efficacy | no beneficial effect or even the opposite effect | –
